Results on 21 compounds are retold here after patent US10889592B2, “Thienopyrazine carboxamides as ubiquitin-specific protease inhibitors” (VALO EARLY DISCOVERY, INC., priority 2016, dated 2021).

One assay has as its target USP25 (Homo sapiens (Human), UniProt Q9UHP3). The assay is described as follows: Ubiquitin-Rhodamine 110 Assay for USP25 Activity. The format is biochemical. To be noted: Ub-Rh110 substrate 25 nM, fluorescence readout. The procedure: The assay was performed in a final volume of 9 μL in assay buffer containing 20 mM Tris-HCl (pH 8.0, (1M Tris-HCl, pH 8.0 solution; Corning 46-031-CM)), 3 mM BME (2-Mercaptoethanol; Sigma 63689-25ML-F), 0.03% BGG ([…] filtered. Sigma, G7516-25G), and 0.01% Triton X-100 (Sigma, T9284-10L). Nanoliter quantities of 10-point, 3-fold serial dilution in DMSO was pre-dispensed into 1536 assay plates (Corning, #3724BC) for a final test concentration of 25 μM to 1.3 nM, top to lowest dose, respectively. Enzyme USP25, construct USP25-His6, (Boston Biochem E-546). Concentration and incubation times were optimized for the maximal signal-to-background while maintaining initial velocity conditions at a fixed substrate concentration. The final concentration of the enzyme in the assay was 75 pM. Final substrate (Ub-Rh110 Ubiquitin-Rhodamine 110, R&D Systems # U-555) concentration was 25 nM with [Ub-Rh110]<<Km. 3 μL of 2× enzyme was added to assay plates (pre-stamped with compound) preincubated with […] for 30 minutes and then 3 μL of 2×Ub-Rh110 was added to assay plates. Plates were incubated for 45 minutes at room temperature before addition of 3 μL of stop solution (final concentration of 10 mM citric acid (Sigma, 251275-500G)). Fluorescence was read on the Envision (Excitation at 485 nm and Emission at 535 nm; Perkin Elmer) or on the PheraSTAR (Excitation at 485 nm and Emission at 535 nm; BMG Labtech).
(§1) For both the USP28 and USP25 assay formats Data were reported as percent inhibition compared with control wells based on the following equation: % inh=1−((FLU−AveLow)/(AveHigh−AveLow)) where FLU=measured Fluorescence, AveLow=average Fluorescence of no enzyme control (n=16), and AveHigh=average Fluorescence of DMSO control (n=16). IC50 values were determined by curve fitting of the standard 4 parameter logistic fitting algorithm included in the Activity Base software package: IDBS XE Designer Model205. Data is fitted using the Levenburg Marquardt algorithm.

A further assay has as its target USP28 (Homo sapiens (Human), UniProt Q96RU2). In words: Ubiquitin-Rhodamine 110 Assay for USP28 Activity. To be noted: Ub-Rh110 substrate 25 nM, fluorescence readout. The assay is classed as biochemical. The procedure: Each assay was performed in a final volume of 20 μL in assay buffer containing 20 mM Tris-HCl (pH 8.0, (1M Tris-HCl, pH 8.0 solution; Corning 46-031-CM)), 2 mM CaCl2) (1M Calcium Chloride solution; Sigma #21114) 2 mM BME (2-Mercaptoethanol; Sigma 63689-25ML-F), 0.01% Prionex (0.22 μM filtered, Sigma # G-0411), and 0.01% Triton X-100. Stock compound solutions were stored at −20° C. as 10 mM in DMSO. Up to 1 month prior to the assay, 2 mM test compounds were pre-dispensed into assay plates (Black, low volume; Corning #3820) and frozen at −20° C. Prestamped assay plates were allowed to come to room temperature on the day of the assay. For the screen, 100 nL of 2 mM was pre-dispensed for a final screening concentration of 10 μM (DMSO(fc)=0.5%). Enzyme (USP28, construct USP28 (USP28-5(1-1077)-TEV-6*His; LifeSensors) concentration and incubation times were optimized for the maximal signal-to-background while maintaining initial velocity conditions at a fixed substrate concentration. The final concentration of the enzyme in the assay was 400 pM. Final substrate (Ub-Rh110; Ubiquitin-Rhodamine 110, R&D Systems # U-555) concentration was 25 nM with [Ub-Rh110]<<Km. 10 μL of 2× enzyme was added to assay plates (pre-stamped with compound) either simultaneously with 2×Ub-Rh110 or preincubated with USP28 40 minutes prior to the addition of 10 μL of 2×Ub-Rh110 to compound plates. Plates were incubated stacked for 90 minutes at room temperature before fluorescence was read on the Envision (Excitation at 485 nm and Emission at 535 nm; Perkin Elmer) or on the PheraSTAR (Excitation at 485 nm and Emission at 535 nm; BMG Labtech).
For follow-up studies, Each assay was performed in a final volume of 15 μL in assay buffer containing 20 mM Tris-HCl (pH 8.0, (1M Tris-HCl, pH 8.0 solution; Corning 46-031-CM)), 3 mM BME (2-Mercaptoethanol; Sigma 63689-25ML-F), 0.03% BGG ([…] filtered, Sigma, G7516-25G), and 0.01% Triton X-100 (Sigma, T9284-10L). Nanoliter quantities of either an 8-point or 10-point, 3-fold serial dilution in DMSO was pre-dispensed into assay plates (Perkin Elmer, ProxiPlate-384 F Plus, #) for a final test concentration of either 25 μM to 11 nM or 25 μM to 1.3 nM, respectively. Enzyme USP28, construct USP28 (USP28-5(1-1077)-TEV-6*His; LifeSensors) concentration and incubation times were optimized for the maximal signal-to-background while maintaining initial velocity conditions at a fixed substrate concentration. The final concentration of the enzyme in the assay was 75 pM. Final substrate (Ub-Rh110; Ubiquitin-Rhodamine 110, R&D Systems # U-555) concentration was 25 nM with [Ub-Rh110]<<Km. 5 μL of 2× enzyme was added to assay plates (pre-stamped with compound) preincubated with USP28 for 30 minutes and then 5 μL of 2×Ub-Rh110 was added to assay plates. Plates were incubated stacked for 20 minutes at room temperature before 5 μL of stop solution was added (final concentration of 10 mM citric acid (Sigma, 251275-500G)). Fluorescence was read on the Envision (Excitation at 485 nm and Emission at 535 nm; Perkin Elmer) or on the PheraSTAR (Excitation at 485 nm and Emission at 535 nm; BMG Labtech).
as §1

Chain of USP25 (Q9UHP3 whole entry): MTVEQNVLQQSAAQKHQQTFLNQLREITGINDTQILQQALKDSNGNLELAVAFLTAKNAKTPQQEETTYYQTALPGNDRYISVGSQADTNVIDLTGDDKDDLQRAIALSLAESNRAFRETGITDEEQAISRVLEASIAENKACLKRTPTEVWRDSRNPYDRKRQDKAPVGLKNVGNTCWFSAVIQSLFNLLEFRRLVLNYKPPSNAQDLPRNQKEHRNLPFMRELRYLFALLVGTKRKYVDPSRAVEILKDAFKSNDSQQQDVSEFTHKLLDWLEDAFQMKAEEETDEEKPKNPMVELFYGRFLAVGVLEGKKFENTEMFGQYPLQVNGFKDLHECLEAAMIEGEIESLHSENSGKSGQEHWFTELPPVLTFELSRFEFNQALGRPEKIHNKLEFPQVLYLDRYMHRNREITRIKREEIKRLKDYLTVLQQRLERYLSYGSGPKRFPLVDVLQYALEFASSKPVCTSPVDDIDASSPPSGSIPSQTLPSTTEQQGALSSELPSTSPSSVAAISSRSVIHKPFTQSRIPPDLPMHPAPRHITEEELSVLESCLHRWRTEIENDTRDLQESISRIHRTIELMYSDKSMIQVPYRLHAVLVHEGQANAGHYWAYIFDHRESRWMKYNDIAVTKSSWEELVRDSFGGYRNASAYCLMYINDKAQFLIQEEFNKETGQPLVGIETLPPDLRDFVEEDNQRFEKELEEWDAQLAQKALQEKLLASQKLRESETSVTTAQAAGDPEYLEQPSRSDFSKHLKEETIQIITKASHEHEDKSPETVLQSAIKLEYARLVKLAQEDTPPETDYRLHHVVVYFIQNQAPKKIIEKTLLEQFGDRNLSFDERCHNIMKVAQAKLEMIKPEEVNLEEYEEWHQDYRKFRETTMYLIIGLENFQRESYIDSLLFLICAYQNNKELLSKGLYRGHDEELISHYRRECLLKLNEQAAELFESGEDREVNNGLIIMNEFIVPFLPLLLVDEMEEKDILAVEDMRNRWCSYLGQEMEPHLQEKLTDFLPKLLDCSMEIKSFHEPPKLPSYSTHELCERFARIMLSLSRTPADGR
Chain of USP28 (Q96RU2 whole entry): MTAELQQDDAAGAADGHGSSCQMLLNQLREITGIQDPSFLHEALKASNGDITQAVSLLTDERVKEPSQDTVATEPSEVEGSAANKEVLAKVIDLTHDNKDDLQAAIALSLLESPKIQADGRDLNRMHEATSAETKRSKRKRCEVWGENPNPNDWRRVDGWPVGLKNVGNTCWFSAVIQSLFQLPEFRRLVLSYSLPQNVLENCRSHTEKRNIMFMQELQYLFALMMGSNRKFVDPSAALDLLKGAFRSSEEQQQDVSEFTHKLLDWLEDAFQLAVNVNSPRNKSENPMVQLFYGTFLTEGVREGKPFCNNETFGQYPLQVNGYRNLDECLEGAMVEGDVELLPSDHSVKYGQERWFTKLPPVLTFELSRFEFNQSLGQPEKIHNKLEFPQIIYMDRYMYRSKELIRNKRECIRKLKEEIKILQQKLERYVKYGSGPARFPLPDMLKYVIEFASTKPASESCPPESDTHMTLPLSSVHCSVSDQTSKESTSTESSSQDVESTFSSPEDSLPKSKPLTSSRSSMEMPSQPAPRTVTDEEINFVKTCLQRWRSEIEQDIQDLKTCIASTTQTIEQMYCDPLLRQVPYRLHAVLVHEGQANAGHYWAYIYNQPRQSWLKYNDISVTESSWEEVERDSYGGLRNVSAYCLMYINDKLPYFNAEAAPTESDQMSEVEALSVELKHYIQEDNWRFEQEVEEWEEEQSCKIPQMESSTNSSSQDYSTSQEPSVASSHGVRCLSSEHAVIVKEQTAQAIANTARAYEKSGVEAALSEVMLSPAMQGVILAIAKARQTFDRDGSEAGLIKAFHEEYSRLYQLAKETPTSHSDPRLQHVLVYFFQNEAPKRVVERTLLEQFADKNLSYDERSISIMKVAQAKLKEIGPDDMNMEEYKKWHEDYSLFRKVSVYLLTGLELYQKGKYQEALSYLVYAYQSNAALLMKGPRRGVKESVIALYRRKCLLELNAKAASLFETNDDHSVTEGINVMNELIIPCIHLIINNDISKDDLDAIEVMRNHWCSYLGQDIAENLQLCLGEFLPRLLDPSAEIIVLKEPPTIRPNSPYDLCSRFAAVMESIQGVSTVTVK

What is called IC50 is the concentration that gives 50% inhibition. A high value points to weaker potency in that assay. For `Cc1cnc2c(N)c(C(=O)NC[C@@H](C)c3ccc(N4CC5CCC(C4)N5)c(F)c3)sc2n1` (single isomer, unassigned) [Compound I-12], the IC50 against USP25 fell in the range of 2000 to 10000 nM; against USP28, 200 to 2000 nM.
As to `Cc1cnc2c(N)c(C(=O)NC[C@H](C)c3ccc(N4CC5CCC(C4)N5)c(F)c3)sc2n1` (single isomer, unassigned) [Compound I-13], the IC50 at USP25 lay within 2000 to 10000 nM; against USP28, 200 to 2000 nM.
In turn, `Cc1cnc2c(N)c(C(=O)NC[C@@H](C)c3cc(F)c(N4CC5CCC(C4)N5)cc3F)sc2n1` (single isomer, unassigned) [Compound I-14] showed an IC50 against USP28 of 2000 to 10000 nM.
As for `Cc1cnc2c(N)c(C(=O)NC[C@H](C)c3cc(F)c(N4CC5CCC(C4)N5)cc3F)sc2n1` (single isomer, unassigned) [Compound I-15], the IC50 against USP25 was 2000 to 10000 nM; against USP28 it was less than 200 nM.
With `Cc1cnc2c(N)c(C(=O)NC[C@@H](C)c3ccc(N4CC5CCC(C4)N5)cc3F)sc2n1` (single isomer, unassigned) [Compound I-16], the IC50 against USP25 and against USP28 was 200 to 2000 nM throughout.
For `Cc1cnc2c(N)c(C(=O)NC[C@H](C)c3ccc(N4CC5CCC(C4)N5)cc3F)sc2n1` (single isomer, unassigned) [Compound I-17], the IC50 on USP25 was in the range of 2000 to 10000 nM; against USP28, 200 to 2000 nM.
Take `Cc1cnc2c(N)c(C(=O)NC[C@@H](C)c3ccc(N4CC5CCC(C4)N5)c(C#N)c3)sc2n1` (single isomer, unassigned) [Compound I-18]: the IC50 on USP25 and against USP28 was 2000 to 10000 nM each time.
Take `Cc1cnc2c(N)c(C(=O)NC[C@H](C)c3ccc(N4CC5CCC(C4)N5)c(C#N)c3)sc2n1` (single isomer, unassigned) [Compound I-19]: the IC50 at USP25 and at USP28 was 2000 to 10000 nM throughout.
On to `Cc1cnc2c(N)c(C(=O)NC[C@@H](C)c3cc(F)c(N4CC5CNCC(C4)O5)cc3F)sc2n1` (single isomer, unassigned) [Compound I-21], for which the IC50 against USP25 and on USP28 was 200 to 2000 nM each time.
As for `Cc1cnc2c(N)c(C(=O)NC[C@H](C)c3cc(F)c(N4CC5CNCC(C4)O5)cc3F)sc2n1` (single isomer, unassigned) [Compound I-22], the IC50 against USP25 and against USP28 was 200 to 2000 nM in each case.
For `Cc1cnc2c(N)c(C(=O)NCCc3ccc(N4CCNCC4)cc3)sc2n1` [Compound I-1, 7-Amino-3-methyl-N-(4-(piperazin-1-yl)phenethyl)thieno[2,3-b]pyrazine-6-carboxamide], the IC50 against USP28 fell in the range of 200 to 2000 nM.
For the compound `Cc1cnc2c(N)c(C(=O)NCCc3ccc(N4CCNCC4)c(Cl)c3)sc2n1` [Compound I-2], the IC50 against USP28 fell in the range of 200 to 2000 nM.
`Cc1cnc2c(N)c(C(=O)NCCc3ccc(N4CC5CCC(C4)N5)c(Cl)c3)sc2n1` [Compound I-3, N-(4-(3,8-diazabicyclo[3.2.1]octan-3-yl)-3-chlorophenethyl)-7-amino-3-methylthieno[2,3-b]pyrazine-6-carboxamide] showed an IC50 against USP28 of less than 200 nM.
In the case of `Cc1cnc2c(N)c(C(=O)NCCc3cc(F)c(N4CCNCC4)cc3F)sc2n1` [Compound I-4], the IC50 against USP25 fell in the range of 2000 to 10000 nM; at USP28 it was 200 to 2000 nM.
With `Cc1cnc2c(N)c(C(=O)NCCc3ccc(N4CC5CCC(C4)N5)c(F)c3)sc2n1` [Compound I-6], the IC50 against USP25 and against USP28 was less than 200 nM each time.
Regarding `Cc1cnc2c(N)c(C(=O)NCCc3cc(F)c(N4CC5CCC(C4)N5)cc3F)sc2n1` [Compound I-7, N-(4-(3,8-diazabicyclo[3.2.1]octan-3-yl)-2,5-difluorophenethyl)-7-amino-3-methylthieno[2,3-b]pyrazine-6-carboxamide], the IC50 on USP25 is 200 to 2000 nM; at USP28, less than 200 nM.
The matching figures for `Cc1cnc2c(N)c(C(=O)NCCc3ccc(N4CC5CCC(C4)N5)c(C#N)c3)sc2n1` [Compound I-9]: 200 to 2000 nM and 200 to 2000 nM.
With `Cc1cnc2c(N)c(C(=O)NCCc3ccc(N4CC5CCC(C4)N5)cc3F)sc2n1` [Compound I-10], the results for the IC50 against USP25 and on USP28 were 200 to 2000 nM and less than 200 nM, respectively.
For the compound `Cc1cnc2c(N)c(C(=O)NCCc3c(F)cc(N4CC5CCC(C4)N5)cc3F)sc2n1` [Compound I-11], the IC50 against USP25 and against USP28 was 200 to 2000 nM each time.
With `Cc1cnc2c(N)c(C(=O)NCCc3c(F)cc(N4CC5CNCC(C4)O5)cc3F)sc2n1` [Compound I-20], the IC50 against USP25 and against USP28 was less than 200 nM throughout.
With `CCc1cnc2c(N)c(C(=O)NCCc3ccc(N4CC5CCC(C4)N5)cc3)sc2n1` [Compound I-23], the IC50 against USP25 lay within 200 to 2000 nM; against USP28, 2000 to 10000 nM.
